In PubChem BioAssay (NCI):
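Cultured in 96-well plates, cells were exposed to test compound for 48 hours across five concentrations. TGI denotes the concentration required for complete inhibition of growth.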

Tested on: SW-620 colon
Assay: inhibition of tumour cell growth, NCI panel, 48 h

| SMILES | TGI [µM] |
| --- | --- |
| O=C1Oc2ccccc2C(=O)/C1=C1/C=C(c2ccccc2)SS1 | > 100 |
| Cc1ccc2c(c1)CN1c3ccc(C)cc3CN2C1c1ccccc1O | > 100 |
| CC1=N/C(=C\c2ccc(/C=C3/N=C(C)OC3=O)cc2)C(=O)O1 | > 100 |
| O=C(NCc1ccccc1)c1cc2ccccc2oc1=Nc1cccc(C(F)(F)F)c1 | > 100 |
| CC1=NN(C(=O)Cc2ccccc2)C(=O)/C1=C\c1ccc(O)cc1 | > 100 |
| CC1=CC2C3(C)C(C)(C(C)=CP3(=O)c3c(C(C)C)cc(C(C)C)cc3C(C)C)C1P2(=O)c1c(C(C)C)cc(C(C)C)cc1C(C)C (centres undefined) | 13.6 |

Tested on: HOP-92 NSCLC
Assay: inhibition of tumour cell growth, NCI panel, 48 h

| SMILES | TGI [µM] |
| --- | --- |
| O=C1Oc2ccccc2C(=O)/C1=C1/C=C(c2ccccc2)SS1 | > 100 |
| Cc1ccc2c(c1)CN1c3ccc(C)cc3CN2C1c1ccccc1O | > 100 |
| N#CNC(N)=NCc1ccccc1 | > 100 |
| CC1=N/C(=C\c2ccc(/C=C3/N=C(C)OC3=O)cc2)C(=O)O1 | > 100 |
| O=C(NCc1ccccc1)c1cc2ccccc2oc1=Nc1cccc(C(F)(F)F)c1 | > 100 |
| CC1=NN(C(=O)Cc2ccccc2)C(=O)/C1=C\c1ccc(O)cc1 | > 100 |
| CC1=CC2C3(C)C(C)(C(C)=CP3(=O)c3c(C(C)C)cc(C(C)C)cc3C(C)C)C1P2(=O)c1c(C(C)C)cc(C(C)C)cc1C(C)C (centres undefined) | 7.97 |

Tested on: LOX IMVI melanoma
Assay: inhibition of tumour cell growth, NCI panel, 48 h

| SMILES | TGI [µM] |
| --- | --- |
| O=C1Oc2ccccc2C(=O)/C1=C1/C=C(c2ccccc2)SS1 | > 100 |
| Cc1ccc2c(c1)CN1c3ccc(C)cc3CN2C1c1ccccc1O | > 100 |
| N#CNC(N)=NCc1ccccc1 | > 100 |
| CC1=N/C(=C\c2ccc(/C=C3/N=C(C)OC3=O)cc2)C(=O)O1 | > 100 |
| O=C(NCc1ccccc1)c1cc2ccccc2oc1=Nc1cccc(C(F)(F)F)c1 | > 100 |
| CC1=NN(C(=O)Cc2ccccc2)C(=O)/C1=C\c1ccc(O)cc1 | > 100 |
| CC1=CC2C3(C)C(C)(C(C)=CP3(=O)c3c(C(C)C)cc(C(C)C)cc3C(C)C)C1P2(=O)c1c(C(C)C)cc(C(C)C)cc1C(C)C (centres undefined) | 3.26 |

Tested on: COLO 205 colon
Assay: inhibition of tumour cell growth, NCI panel, 48 h

| SMILES | TGI [µM] |
| --- | --- |
| O=C1Oc2ccccc2C(=O)/C1=C1/C=C(c2ccccc2)SS1 | > 100 |
| Cc1ccc2c(c1)CN1c3ccc(C)cc3CN2C1c1ccccc1O | > 100 |
| N#CNC(N)=NCc1ccccc1 | > 100 |
| CC1=N/C(=C\c2ccc(/C=C3/N=C(C)OC3=O)cc2)C(=O)O1 | > 100 |
| O=C(NCc1ccccc1)c1cc2ccccc2oc1=Nc1cccc(C(F)(F)F)c1 | 90.2 |
| CC1=NN(C(=O)Cc2ccccc2)C(=O)/C1=C\c1ccc(O)cc1 | > 100 |
| CC1=CC2C3(C)C(C)(C(C)=CP3(=O)c3c(C(C)C)cc(C(C)C)cc3C(C)C)C1P2(=O)c1c(C(C)C)cc(C(C)C)cc1C(C)C (centres undefined) | 3.3 |

Tested on: K-562 leukemia
Assay: inhibition of tumour cell growth, NCI panel, 48 h

| SMILES | TGI [µM] |
| --- | --- |
| O=C1Oc2ccccc2C(=O)/C1=C1/C=C(c2ccccc2)SS1 | > 100 |
| Cc1ccc2c(c1)CN1c3ccc(C)cc3CN2C1c1ccccc1O | > 100 |
| CC1=N/C(=C\c2ccc(/C=C3/N=C(C)OC3=O)cc2)C(=O)O1 | > 100 |
| O=C(NCc1ccccc1)c1cc2ccccc2oc1=Nc1cccc(C(F)(F)F)c1 | > 100 |
| CC1=NN(C(=O)Cc2ccccc2)C(=O)/C1=C\c1ccc(O)cc1 | > 100 |
| CC1=CC2C3(C)C(C)(C(C)=CP3(=O)c3c(C(C)C)cc(C(C)C)cc3C(C)C)C1P2(=O)c1c(C(C)C)cc(C(C)C)cc1C(C)C (centres undefined) | 12.8 |

Tested on: CCRF-CEM leukemia
Assay: inhibition of tumour cell growth, NCI panel, 48 h

| SMILES | TGI [µM] |
| --- | --- |
| O=C1Oc2ccccc2C(=O)/C1=C1/C=C(c2ccccc2)SS1 | 49.6 |
| Cc1ccc2c(c1)CN1c3ccc(C)cc3CN2C1c1ccccc1O | > 100 |
| N#CNC(N)=NCc1ccccc1 | > 100 |
| CC1=N/C(=C\c2ccc(/C=C3/N=C(C)OC3=O)cc2)C(=O)O1 | > 100 |
| O=C(NCc1ccccc1)c1cc2ccccc2oc1=Nc1cccc(C(F)(F)F)c1 | > 100 |
| CC1=NN(C(=O)Cc2ccccc2)C(=O)/C1=C\c1ccc(O)cc1 | > 100 |
| CC1=CC2C3(C)C(C)(C(C)=CP3(=O)c3c(C(C)C)cc(C(C)C)cc3C(C)C)C1P2(=O)c1c(C(C)C)cc(C(C)C)cc1C(C)C (centres undefined) | 7.44 |

Tested on: HT29 colon
Assay: inhibition of tumour cell growth, NCI panel, 48 h

| SMILES | TGI [µM] |
| --- | --- |
| O=C1Oc2ccccc2C(=O)/C1=C1/C=C(c2ccccc2)SS1 | > 100 |
| Cc1ccc2c(c1)CN1c3ccc(C)cc3CN2C1c1ccccc1O | > 100 |
| N#CNC(N)=NCc1ccccc1 | > 100 |
| CC1=N/C(=C\c2ccc(/C=C3/N=C(C)OC3=O)cc2)C(=O)O1 | > 100 |
| O=C(NCc1ccccc1)c1cc2ccccc2oc1=Nc1cccc(C(F)(F)F)c1 | > 100 |
| CC1=NN(C(=O)Cc2ccccc2)C(=O)/C1=C\c1ccc(O)cc1 | > 100 |
| CC1=CC2C3(C)C(C)(C(C)=CP3(=O)c3c(C(C)C)cc(C(C)C)cc3C(C)C)C1P2(=O)c1c(C(C)C)cc(C(C)C)cc1C(C)C (centres undefined) | 6.29 |

Tested on: SK-MEL-5 melanoma
Assay: inhibition of tumour cell growth, NCI panel, 48 h

| SMILES | TGI [µM] |
| --- | --- |
| O=C1Oc2ccccc2C(=O)/C1=C1/C=C(c2ccccc2)SS1 | > 100 |
| Cc1ccc2c(c1)CN1c3ccc(C)cc3CN2C1c1ccccc1O | 30.5 |
| N#CNC(N)=NCc1ccccc1 | > 100 |
| CC1=N/C(=C\c2ccc(/C=C3/N=C(C)OC3=O)cc2)C(=O)O1 | > 100 |
| O=C(NCc1ccccc1)c1cc2ccccc2oc1=Nc1cccc(C(F)(F)F)c1 | 70.8 |
| CC1=NN(C(=O)Cc2ccccc2)C(=O)/C1=C\c1ccc(O)cc1 | > 100 |
| CC1=CC2C3(C)C(C)(C(C)=CP3(=O)c3c(C(C)C)cc(C(C)C)cc3C(C)C)C1P2(=O)c1c(C(C)C)cc(C(C)C)cc1C(C)C (centres undefined) | 3 |

Tested on: SR leukemia
Assay: inhibition of tumour cell growth, NCI panel, 48 h

| SMILES | TGI [µM] |
| --- | --- |
| O=C1Oc2ccccc2C(=O)/C1=C1/C=C(c2ccccc2)SS1 | 61.3 |
| Cc1ccc2c(c1)CN1c3ccc(C)cc3CN2C1c1ccccc1O | > 100 |
| N#CNC(N)=NCc1ccccc1 | > 100 |
| O=C(NCc1ccccc1)c1cc2ccccc2oc1=Nc1cccc(C(F)(F)F)c1 | 66.1 |
| CC1=CC2C3(C)C(C)(C(C)=CP3(=O)c3c(C(C)C)cc(C(C)C)cc3C(C)C)C1P2(=O)c1c(C(C)C)cc(C(C)C)cc1C(C)C (centres undefined) | 3.92 |

Tested on: UACC-257 melanoma
Assay: inhibition of tumour cell growth, NCI panel, 48 h

| SMILES | TGI [µM] |
| --- | --- |
| O=C1Oc2ccccc2C(=O)/C1=C1/C=C(c2ccccc2)SS1 | > 100 |
| N#CNC(N)=NCc1ccccc1 | > 100 |
| CC1=N/C(=C\c2ccc(/C=C3/N=C(C)OC3=O)cc2)C(=O)O1 | > 100 |
| O=C(NCc1ccccc1)c1cc2ccccc2oc1=Nc1cccc(C(F)(F)F)c1 | 84 |
| CC1=NN(C(=O)Cc2ccccc2)C(=O)/C1=C\c1ccc(O)cc1 | > 100 |
| CC1=CC2C3(C)C(C)(C(C)=CP3(=O)c3c(C(C)C)cc(C(C)C)cc3C(C)C)C1P2(=O)c1c(C(C)C)cc(C(C)C)cc1C(C)C (centres undefined) | 3.34 |

Tested on: M14 melanoma
Assay: inhibition of tumour cell growth, NCI panel, 48 h

| SMILES | TGI [µM] |
| --- | --- |
| O=C1Oc2ccccc2C(=O)/C1=C1/C=C(c2ccccc2)SS1 | > 100 |
| Cc1ccc2c(c1)CN1c3ccc(C)cc3CN2C1c1ccccc1O | > 100 |
| N#CNC(N)=NCc1ccccc1 | > 100 |
| CC1=N/C(=C\c2ccc(/C=C3/N=C(C)OC3=O)cc2)C(=O)O1 | > 100 |
| O=C(NCc1ccccc1)c1cc2ccccc2oc1=Nc1cccc(C(F)(F)F)c1 | > 100 |
| CC1=NN(C(=O)Cc2ccccc2)C(=O)/C1=C\c1ccc(O)cc1 | > 100 |
| CC1=CC2C3(C)C(C)(C(C)=CP3(=O)c3c(C(C)C)cc(C(C)C)cc3C(C)C)C1P2(=O)c1c(C(C)C)cc(C(C)C)cc1C(C)C (centres undefined) | 4.21 |

Tested on: T-47D breast
Assay: inhibition of tumour cell growth, NCI panel, 48 h

| SMILES | TGI [µM] |
| --- | --- |
| O=C1Oc2ccccc2C(=O)/C1=C1/C=C(c2ccccc2)SS1 | > 100 |
| O=C(NCc1ccccc1)c1cc2ccccc2oc1=Nc1cccc(C(F)(F)F)c1 | > 100 |
| CC1=CC2C3(C)C(C)(C(C)=CP3(=O)c3c(C(C)C)cc(C(C)C)cc3C(C)C)C1P2(=O)c1c(C(C)C)cc(C(C)C)cc1C(C)C (centres undefined) | 10.9 |

Tested on: XF 498 CNS
Assay: inhibition of tumour cell growth, NCI panel, 48 h

| SMILES | TGI [µM] |
| --- | --- |
| CC1=N/C(=C\c2ccc(/C=C3/N=C(C)OC3=O)cc2)C(=O)O1 | > 100 |
| CC1=NN(C(=O)Cc2ccccc2)C(=O)/C1=C\c1ccc(O)cc1 | > 100 |

Tested on: MDA-MB-435
Assay: inhibition of tumour cell growth, NCI panel, 48 h

| SMILES | TGI [µM] |
| --- | --- |
| O=C1Oc2ccccc2C(=O)/C1=C1/C=C(c2ccccc2)SS1 | > 100 |
| O=C(NCc1ccccc1)c1cc2ccccc2oc1=Nc1cccc(C(F)(F)F)c1 | > 100 |
| CC1=CC2C3(C)C(C)(C(C)=CP3(=O)c3c(C(C)C)cc(C(C)C)cc3C(C)C)C1P2(=O)c1c(C(C)C)cc(C(C)C)cc1C(C)C (centres undefined) | 5.33 |

Tested on: NCI-H226 lung
Assay: inhibition of tumour cell growth, NCI panel, 48 h

| SMILES | TGI [µM] |
| --- | --- |
| O=C1Oc2ccccc2C(=O)/C1=C1/C=C(c2ccccc2)SS1 | > 100 |
| Cc1ccc2c(c1)CN1c3ccc(C)cc3CN2C1c1ccccc1O | > 100 |
| N#CNC(N)=NCc1ccccc1 | > 100 |
| O=C(NCc1ccccc1)c1cc2ccccc2oc1=Nc1cccc(C(F)(F)F)c1 | 97.7 |
| CC1=NN(C(=O)Cc2ccccc2)C(=O)/C1=C\c1ccc(O)cc1 | > 100 |
| CC1=CC2C3(C)C(C)(C(C)=CP3(=O)c3c(C(C)C)cc(C(C)C)cc3C(C)C)C1P2(=O)c1c(C(C)C)cc(C(C)C)cc1C(C)C (centres undefined) | 6.08 |

Tested on: ACHN renal
Assay: inhibition of tumour cell growth, NCI panel, 48 h

| SMILES | TGI [µM] |
| --- | --- |
| O=C1Oc2ccccc2C(=O)/C1=C1/C=C(c2ccccc2)SS1 | > 100 |
| Cc1ccc2c(c1)CN1c3ccc(C)cc3CN2C1c1ccccc1O | > 100 |
| N#CNC(N)=NCc1ccccc1 | > 100 |
| CC1=N/C(=C\c2ccc(/C=C3/N=C(C)OC3=O)cc2)C(=O)O1 | > 100 |
| O=C(NCc1ccccc1)c1cc2ccccc2oc1=Nc1cccc(C(F)(F)F)c1 | > 100 |
| CC1=NN(C(=O)Cc2ccccc2)C(=O)/C1=C\c1ccc(O)cc1 | > 100 |
| CC1=CC2C3(C)C(C)(C(C)=CP3(=O)c3c(C(C)C)cc(C(C)C)cc3C(C)C)C1P2(=O)c1c(C(C)C)cc(C(C)C)cc1C(C)C (centres undefined) | 8.96 |

Tested on: UO-31 renal
Assay: inhibition of tumour cell growth, NCI panel, 48 h

| SMILES | TGI [µM] |
| --- | --- |
| O=C1Oc2ccccc2C(=O)/C1=C1/C=C(c2ccccc2)SS1 | > 100 |
